The values below come from patent publication US8981106B2, “Pyrimidinecarboxamides as CXCR2 modulators” (Syntrix Biosystems, Inc., priority 2009, dated 2015).

In general, EC50 refers to the concentration at which the effect is half-maximal. Usually IC50 stands for the point on the concentration scale where inhibition reaches its midpoint.

Molecules are shown by their SMILES. “And” between values parts separate entries of the source, which are not always exact repeats. Equal entries are not always repeated.

Test [1] deals with T1, CXCR2 (Homo sapiens (Human), UniProt P25025). Kind of test: Agonist activity: intracellular calcium release in human neutrophils in the absence of GROα. The format is cell-based. The note with it: for EC50: human neutrophils, agonist calcium release; for Magnitude of Agonist Response (% of GROα only Control): relative to the response to 25 nM GROα. The method, then: (§1) In Tables 1-5, the IC50 or EC50 values were determined using the following assay. This assay measures intracellular calcium release via fluorescence as an indication of CXCR2 receptor activation by the physiologic agonist GROα. The assay is a Ca^2+ mobilization assay that measures changes in intracellular Ca^2+ with a FlexStation II scanning fluorometer using a FLIPR-3 Calcium Assay Kit (Molecular Devices, Sunnyvale, Calif.). The procedure is as follows:
(§2) 9. The maximum change in fluorescence, expressed in arbitrary units over baseline (Max-Min) was used to determine the GROα response. […] Therapeutic Activity
(§3) The maximum change in fluorescence, expressed in arbitrary units over baseline (Max-Min), was used to determine the GROα response.
Intracellular calcium release is a hallmark of CXCR2 activation by endogenous agonists, such as GROα and IL-8.
(In general: Calcium flux is commonly read through the fluorescence of an indicator in the cells.)

Test [2] concerns the target T1, CXCR2. Description: Inhibition of GROα-mediated intracellular calcium release in human neutrophils (FLIPR-3 Ca2+ mobilization). Conditions: human neutrophils, 25 nM GROα; read-out: IC50. The format is cell-based. The procedure:
as §1
1. Human neutrophils were suspended in HBSS^− (without Ca^2+ and Mg^2+) containing 10 mM HEPES and FLIPR Calcium 3 dye (3.1×10^7 cells in total volume 1.7 mL).
2. […] As controls, 2 μL of DMSO (1% final concentration) were added to other 2 tubes.
3. Cells were incubated for 30 min at 37° C.
4. After dye loading, tubes were centrifuged at 6,000 rpm for 1 min, supernatant was removed and cell pellet was re-suspended in 200 μL of HBSS^+ (with Ca^2+ and Mg^2+) containing 10 mM HEPES.
5. The compound or DMSO (control) was added again at the same concentrations that were used during cell loading.
6. The cell suspension was aliquoted into a 96-well Reading Plate (Corning) in a volume of 90 μL (10^5 cells/well). The Compound Plate contained physiologic agonist (GROα in HBSS^−) or HBSS^− (control).
as §2
Briefly, human neutrophils were suspended in HBSS^− (without Ca^2+ and Mg^2+) containing 10 mM HEPES and FLIPR Calcium 3 dye (3.1×10^7 cells in total volume 1.7 mL). […] As controls, 2 μL of DMSO (1% final concentration) were added to 2 other tubes. Cells were incubated for 30 min at 37° C. After dye loading, tubes were centrifuged at 6,000 rpm for 1 min, supernatant was removed and the cell pellet was re-suspended in 200 μL of HBSS^+ (with Ca^2+ and Mg^2+) containing 10 mM HEPES. The test compound or DMSO (control) was added again at the same concentrations that were used during cell loading. The cell suspension was aliquoted into a 96-well Reading Plate (Corning) in a volume of 90 μL (10^5 cells/well). The Compound Plate contained agonist (GROα in HBSS^−) or HBSS^− (control).
as §3

T1 sequence (P25025 whole entry): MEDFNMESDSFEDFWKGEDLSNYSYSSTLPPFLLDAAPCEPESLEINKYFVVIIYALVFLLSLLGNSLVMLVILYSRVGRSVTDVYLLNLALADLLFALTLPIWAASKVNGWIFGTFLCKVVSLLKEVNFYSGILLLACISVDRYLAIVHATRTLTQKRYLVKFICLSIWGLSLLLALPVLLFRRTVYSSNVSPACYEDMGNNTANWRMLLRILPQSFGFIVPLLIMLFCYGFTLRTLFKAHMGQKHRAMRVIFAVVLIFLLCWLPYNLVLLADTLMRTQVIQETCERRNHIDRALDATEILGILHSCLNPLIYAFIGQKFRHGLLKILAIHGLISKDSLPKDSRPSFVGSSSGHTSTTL

In the case of `O=C(Nc1ccc(F)cc1)c1ccc(SCc2cc(OC(F)(F)F)ccc2O)nc1` [Compound 14, 6-(2-hydroxy-5-trifluoromethoxy-benzylsulfanyl)-N-(4-fluoro-phenyl)-nicotinamide], on CXCR2 [1], the EC50 was 1800 nM and 1810 nM; the “Magnitude of Agonist Response (% of GROα only Control)” value was determined as 15%. The IC50 on CXCR2 [2] turned out to be 28 ± 6 nM.

As to `CC1(C)OB(c2ccccc2CCSc2ccc(C(=O)Nc3ccc(F)cc3)cn2)OC1(C)C` [Compound 15], the IC50 at CXCR2 [2] was found to be 611 nM.

Take `O=C(Nc1ccc(F)cc1)c1ccc(SCc2nc3ccccc3s2)nc1` [Compound 68]: the IC50 on CXCR2 [2] is > 10000 nM.

Regarding `O=C(CSc1ccc(C(=O)Nc2ccc(F)cc2)cn1)c1cccc(Cl)c1` [Compound 90], the IC50 at CXCR2 [2] came out at 210 ± 190 nM.

Take `O=C(Nc1ccc(F)cc1)c1ccc(SCC(=O)c2cc(Br)cc3c2OCC3)nc1` [Compound 152]: the IC50 at CXCR2 [2] came to 529 ± 440 nM.

As for `Cc1nc(-c2cccc(CSc3ccc(C(=O)Nc4ccc(F)cc4)cn3)c2)cs1` [Compound 37], the IC50 on CXCR2 [2] was > 5000 nM. With `O=C(CSc1ccc(C(=O)Nc2ccc(F)cc2)cn1)c1ccc(OC(F)F)cc1` [Compound 107], the IC50 at CXCR2 [2] is > 10000 nM. Take `O=C(CSc1ccc(C(=O)Nc2ccc(F)cc2)cn1)c1ccc2c(c1)OCCCO2` [Compound 142]: the IC50 at CXCR2 [2] was > 5000 nM. With `CC(=O)Oc1ccccc1CSc1ccc(C(=O)Nc2ccc(F)cc2)cn1` [Compound 13a], at CXCR2 [2], the half-inhibitory concentration (IC50) is > 5000 nM.

For `O=C(Nc1ccc(F)cc1)c1ccc(SCc2ccccc2C(=O)O)nc1` [Compound 24], the IC50 at CXCR2 [2] stood at 1480 ± 490 nM.

As for `N#Cc1cccc(C(=O)CSc2ccc(C(=O)Nc3ccc(F)cc3)cn2)c1` [Compound 103], the IC50 at CXCR2 [2] was > 5000 nM.

On to `Cc1cc(CSc2ccc(C(=O)Nc3ccc(F)cc3)cn2)no1` [Compound 44], for which, on CXCR2 [2], the IC50 was > 5000 nM.

Turning to `Cc1nc(-c2ccc(CSc3ccc(C(=O)Nc4ccc(F)cc4)cn3)cc2)cs1` [Compound 36], the IC50 on CXCR2 [2] is > 10000 nM. Same read-out and setting: then `O=C(Nc1ccc(F)cc1)c1ccc(SCc2ccc(-c3ccsc3)cc2)nc1` [Compound 29], with > 10000 nM. The same measure, in the same setting: next, `O=C(Nc1ccc(F)cc1)c1ccc(SCc2cccc3c2OCCCO3)nc1` [Compound 50]: 350 nM; `Cc1n[nH]c(C)c1CCSc1ccc(C(=O)Nc2ccc(F)cc2)cn1` [Compound 47]: > 5000 nM; `O=C(CSc1ccc(C(=O)Nc2ccc(F)cc2)cn1)c1ccc(OC(F)(F)F)cc1` [Compound 106]: > 10000 nM. As for `O=C(CSc1ccc(C(=O)Nc2ccc(F)cc2)cn1)c1ccc(Br)cc1` [Compound 88], the IC50 on CXCR2 [2] is > 10000 nM. `O=C(Nc1ccc(F)cc1)c1ccc(SCc2ccc(Cl)c(Cl)c2)nc1` [Compound 27]: the IC50 at CXCR2 [2] was 1610 nM. Take `O=C(Nc1ccc(F)cc1)c1ccc(SCc2ccccc2O)nc1` [Compound 13]: at CXCR2 [1], the EC50 was found to be 2400 nM and the “Magnitude of Agonist Response (% of GROα only Control)” value came out at 60%.

For the compound `O=C(Nc1ccc(F)cc1)c1ccc(SCc2ccccc2-c2nn[nH]n2)nc1` [Compound 26], the IC50 on CXCR2 [2] was 173 ± 46 nM. Still for that read-out and setting: next, `Cc1ccc2cc(CSc3ccc(C(=O)Nc4ccc(F)cc4)cn3)ccc2n1` [Compound 55]: > 10000 nM. With `O=C(c1ccc(SCc2ccccc2B(O)O)nc1)N(Cc1ccccn1)c1ccc(F)cc1` [Compound 155], the IC50 on CXCR2 [2] was 78 ± 18 nM. On the same count and under the same terms, then `O=C(Nc1ccc(F)c(C(=O)O)c1)c1ccc(SCc2ccccc2B(O)O)nc1` [Compound 166], with > 10000 nM; and `O=C(Nc1ccc(F)cc1)c1ccc(SCc2ccc([N+](=O)[O-])o2)nc1` [Compound 75], with > 5000 nM. On the same count and under the same terms, next, `O=C(CSc1ccc(C(=O)Nc2ccc(F)cc2)cn1)c1cccnc1` [Compound 114]: > 5000 nM; `O=C(Nc1ccc(F)cc1)c1ccc(SCC(=O)c2cc(-c3ccccc3)no2)nc1` [Compound 133]: > 5000 nM. As for `O=C(CSc1ccc(C(=O)Nc2ccc(F)cc2)cn1)c1cccc(Br)c1` [Compound 89], the IC50 at CXCR2 [2] is 852 ± 292 nM.

Regarding `O=C(Nc1ccc(F)cc1)c1ccc(SCC(=O)C(c2ccccc2)c2ccccc2)nc1` [Compound 153], the IC50 at CXCR2 [2] is 1230 nM. The same measure, in the same setting: next, `O=C(CSc1ccc(C(=O)Nc2ccc(F)cc2)cn1)c1ccc(C(F)(F)F)cc1` [Compound 86]: > 10000 nM; `O=C(Nc1ccc(F)cc1)c1ccc(SCCc2ccccc2B(O)O)nc1` [Compound 9]: 387 ± 125 nM; `COc1ccc(C(=O)CSc2ccc(C(=O)Nc3ccc(F)cc3)cn2)cc1` [Compound 100]: > 10000 nM. For the compound `O=C(Nc1ccc(F)cc1)c1ccc(SCS(=O)(=O)c2ccccc2)nc1` [Compound 83], the half-inhibitory concentration (IC50) at CXCR2 [2] was > 5000 nM.
